Reference: paper PMC12650355 (2025)

Experiments:
[1] = test system: Apt2 (DNA, aptamer) ACTTCAGTGAGTTGTCCCACGGTCGGCGAGTCGGTGGTAG; assay: SPR (Biacore T200), single concentration; settings: 100 mM Na+, 5 mM K+, 2 mM Mg2+, 1 mM Ca2+ (sample diluent Buf1), diluent Buf1 pH 7.4, SA-coated CM5 chip
[2] = test system: Apt2 (DNA, aptamer) ACTTCAGTGAGTTGTCCCACGGTCGGCGAGTCGGTGGTAG; assay: SPR (Biacore T200), steady-state fit; settings: 100 mM Na+, 5 mM K+, 2 mM Mg2+, 1 mM Ca2+ (sample diluent Buf1); running buffer PBS; diluent Buf1, 20 mM Tris-HCl pH 7.4; SA-coated CM5 chip
[3] = 6.4 μM tested, running buffer PBS not restated

SMILES | binding [1, 3] | also measured
CS(=O)(=O)c1ccc([C@@H](O)[C@@H](CO)NC(=O)C(Cl)Cl)cc1 | no | 
O=C(N[C@H](CO)[C@H](O)c1ccc([N+](=O)[O-])cc1)C(Cl)Cl |  | KD [2]: 141 nM
CS(=O)(=O)c1ccc([C@@H](O)[C@@H](CF)NC(=O)C(Cl)Cl)cc1 | no | 
CO/N=C(\C(=O)N[C@@H]1C(=O)N2C(C(=O)O)=C(COC(N)=O)CS[C@H]12)c1ccco1 |  | binding ([1]; 6.4 μM tested (printed CN, CXM)): no
